From article PMC12676349, “Design of Glycosyltransferase Inhibitors: Targeting the Biosynthesis of Glycosaminoglycans by Phosphonate-Xyloside” (ACS Omega, 2025)
pIC50: −log10 of the molar value.

What was measured:
[1] = target: T1, β-1,4-Galactosyltransferase 7 (β4GalT7) (Homo sapiens, UniProt Q9UBV7); experiment: HPLC assay of GalXylNap formation from XylNap and UDP-Gal; format: biochemical
T1 construct: gene B4GALT7
T1 sequence (Q9UBV7 81-327): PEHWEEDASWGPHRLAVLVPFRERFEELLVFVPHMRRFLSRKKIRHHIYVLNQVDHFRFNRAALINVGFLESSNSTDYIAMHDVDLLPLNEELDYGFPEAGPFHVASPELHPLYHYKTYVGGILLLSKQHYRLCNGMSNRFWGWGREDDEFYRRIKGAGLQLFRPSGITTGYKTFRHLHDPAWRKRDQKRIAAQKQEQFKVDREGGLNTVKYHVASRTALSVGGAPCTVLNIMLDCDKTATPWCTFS
Excerpt: HPLC assay of GalXylNap formation from XylNap and UDP-Gal on β-1,4-Galactosyltransferase 7 (β4GalT7) | display concentration-dependent inhibition of β4GalT7.

[2] = target: T1, β-1,4-Galactosyltransferase 7 (β4GalT7); experiment: STD NMR; format: binding

Row | pIC50 [1] | SMILES | STD NMR [2]
1 | 3.73 | O=P(O)(O)CP(=O)(O)OCCO[C@@H]1COC(O)[C@H](O)[C@H]1O (mixture of isomers) [compound 4, 4-O-(2-(Methylene-diphosphoryl)-hydroxyethyl)-α/β-D-xylopyranose] | –
2 | – | CC(=O)N[C@H]1[C@@H](OP(=O)(O)OP(=O)(O)OC[C@H]2O[C@@H](n3ccc(=O)[nH]c3=O)[C@H](O)[C@@H]2O)O[C@H](CO)[C@H](O)[C@@H]1O [UDP-GalNAc] | β4GalT7 tolerates an N-acetyl group at C2 of the sugar residue
